Columns and labels:
β2-adrenoceptor = target: T1, β2-adrenoceptor (Cavia porcellus, UniProt Q8K4Z4); assay: β2-Adrenoceptor agonistic activity in isolated guinea-pig trachea (relaxation); format: cell-based; conditions: half-maximal relaxation of isolated guinea-pig trachea pre-treated with 3×10^−7 M RP 73401; for EC50: read-out: β2-Adrenoceptor agonistic affinity [-logEC50 (mol/l)] (converted)
T1 construct: Male guinea-pigs (350-450 g) were killed by a sharp blow on the head and exsanguination, after that the trachea was removed; from tissue; host or cells: isolated guinea-pig trachea (ring chains in organ bath)
Excerpt: b) β2-Adrenoceptor Agonistic Activity in Isolated Guinea-pig Trachea
Male guinea-pigs (350-450 g) were killed by a sharp blow on the head and exsanguination, after that the trachea was removed. After clearing off adhering tissue the trachea was cut into single rings which were tied together forming up to six 4- to 5-ring chains which were suspended in 10-ml organ baths containing Krebs buffer of the following composition (mM): NaCl 118, KCl 5.2, CaCl2 1.9, MgSO4 0.56, NaH2PO4 0.8, NaHCO3 25.0, and glucose 11.1, maintained at 37° C. and continuously aerated with a mixture of 95% O2 and 5% CO2. The end of the chain was tied at the bottom of the tissue bath and connected to a force-displacement transducer (Type K-30, Hugo Sachs Elektronik, Germany) for the recording of isometric tension changes and then placed under 1.5 to 2 g of tension. After a 60 min equilibration period, during which time the preparations were repeatedly washed and the spontaneous contraction plateaud, each tracheal preparation was pre-treated with 3×10^−7 M of RP 73401 for total inhibition of PDE4, which caused relaxation of the tissue between 30 and 40% of maximum (Harris et al., 1989, JPET 251: 199-206). After stabilization of the relaxant response to RP 73401, the test drugs were administered in a cumulative manner (factor 3), each concentration remaining in contact with the trachea until the […] response reached a plateau, before addition of the next higher concentration. At the end of the test drug administration, which caused maximal relaxation the tissue (verified in control experiments for each test drug by additional administration of 10^−6 M (−)-isoprenaline), a high concentration of the β-adrenoceptor antagonist, dl-sotalol (3−6×10^−4 M), was additionally given to assess whether the relaxant response of the trachea to test compound was due to β2-adrenoceptor stimulation. dl-Sotalol nearly completely reversed the relaxation amplitude to the test compounds and was taken as evidence for their β2-adrenoceptor agonistic property. The relaxant response to test compound was expressed as percent determined between the relaxant amplitude after that reached by RP 73401 (0%) and the maximal relaxation obtained prior to dl-sotalol administration (100%). EC50 values for a half-maximal relaxation of the tissue by test compound were graphically interpolated from 12 to 16 individual concentration-response curve. The −log EC50 values (mol/l) thus obtained were taken as a measure for β2-adrenoceptor agonistic activity of the test compounds.

human eosinophils = assay: Inhibition of C5a-stimulated chemiluminescence in human eosinophils; format: cell-based; conditions: 100 nM C5a, 100 nM salbutamol included as additional cAMP trigger; for IC30: Eosinophil, read-out: Inhibition of C5a-stimulated chemiluminescence [-logIC30 (mol/l)] (converted)
Excerpt: c) Inhibition of C5a-stimulated Chemiluminescence in Human Eosinophils
Eosinophils were purified essentially as described in detail elsewhere (Hatzelmann A, Tenor H and Schudt C, Differential effects of non-selective and selective phosphodiesterase inhibitors on human eosinophil functions. Brit J Pharmacol 114: 821-831, 1995). Briefly, total granulocytes were first purified from blood (anticoagulated with 0.3% w/v sodium citrate) by dextran sedimentation, centrifugation on Ficoll Paque and hypotonic lysis of remaining red blood cells. For the further purification of the eosinophil fraction the magnetic cell separation (MACS) system from Miltenyi Biotec (Bergisch-Gladbach, Germany) was applied. Eosinophils were separated from neutrophils by negative selection using anti-CD16 microbeads in a two-step protocol using D- and BS-(formerly called B2-) separation columns. By this method human eosinophils with a purity of >99% and a viability of >97% were obtained.
The chemiluminescence (CL) assay was essentially performed as described (Hatzelmann et al., 1995). Briefly, measurements were performed in a “CL-buffer” (140 mM NaCl, 5 mM KCl, 1 mM MgCl2, 10 mM HEPES, pH 7.4) containing 1 mM CaCl2, 1 mg/ml glucose, 0.05% (w/v) BSA, 10 μM luminol and 4 μM microperoxidase (all values correspond to final concentrations in the assays) in a total volume of 0.5 ml at a cell concentration of 10^6 cells/ml. Aliquots (0.4 ml) of the cell suspension (containing luminol and microperoxidase) were preincubated for 5 min at 37° C. in the absence or presence of inhibitors (0.05 ml). Stock solutions of the inhibitors (10 mM) were prepared in DMSO and diluted 1:100 (v/v) in CL-buffer; subsequent dilutions were made in 1% DMSO/CL-buffer to achieve the final drug concentrations in the assays at a DMSO concentration of 0.1% (v/v) which by itself only weakly affected the CL response. […] After preincubation, the assays were transferred into a “Multi-biolumat LB 9505C” from Berthold (Wildbad, Germany) and stimulated by the addition of 0.05 ml C5a (dissolved in CL-buffer; 100 nM final concentration). CL was continuously recorded for 1 min (C5a) and the AUC (area under the curve) calculated. Inhibition of CL by the compounds under these conditions is given as −log IC30 (mol/l).

PDE4 = assay: Inhibition of PDE4 activity (cytosol from human neutrophils, [3H]cAMP hydrolysis); format: biochemical; conditions: 0.5 μM cAMP, Motapizone 1 μM, DMSO 0.5% for (some of) examples 1-19, 1% from example 20
Method: Method for Measuring Inhibition of PDE4 Activity
PDE4 activity was determined as described by Thompson et al. (Adv Cycl Nucl Res 10: 69-92, 1979) with some modifications (Bauer and Schwabe, Naunyn-Schmiedeberg's Arch Pharmacol 311: 193-198, 1980). At a final assay volume of 200 μl (96well microtiter plates) the assay mixture contained 20 mM Tris-HCl (pH 7.4), 5 mM MgCl2, 0.5 μM cAMP, [^3H]cAMP (about 30,000 cpm/assay), the test compound and an aliquot of cytosol from human neutrophils which mainly contains PDE4 activity as described by Schudt et al. (Naunyn-Schmiedeberg's Arch Pharmacol 344: 682-690, 1991); the PDE3-specific inhibitor Motapizone (1 μM) was included to suppress PDE3 activity originating from contaminating platelets.
To minimize problems with the solubility of the compounds, starting from example 20 serial dilutions of the compounds were prepared directly in DMSO and further diluted 1:100 (v/v) in the assays to obtain now the final concentrations of the inhibitors at a DMSO concentration of 1% (v/v) which by itself only slightly affected PDE4 activity.
After preincubation for 5 min at 37° C., the reaction was started by the addition of substrate (cAMP) and the assays were incubated for further 15 min at 37° C. 50 μl of 0.2 N HCl was added to stop the reaction and the assays were left on ice for about 10 min. Following incubation with 25 μg 5′-nucleotidase (Crotalus atrox snake venom) for 10 min at 37° C., the assays were loaded on QAE Sephadex A-25 (1 ml bed volume). The columns were eluted with 2 ml of 30 mM ammonium formiate (pH 6.0) and the eluate was counted for radioactivity. Results were corrected for blank values (measured in the presence of denatured protein) which were below 5% of total radioactivity. […] The IC50-values for the compounds according to the invention for the inhibition of the PDE4 activity were determined from the concentration-inhibition curves by nonlinear-regression.

T1 sequence (Q8K4Z4 whole entry): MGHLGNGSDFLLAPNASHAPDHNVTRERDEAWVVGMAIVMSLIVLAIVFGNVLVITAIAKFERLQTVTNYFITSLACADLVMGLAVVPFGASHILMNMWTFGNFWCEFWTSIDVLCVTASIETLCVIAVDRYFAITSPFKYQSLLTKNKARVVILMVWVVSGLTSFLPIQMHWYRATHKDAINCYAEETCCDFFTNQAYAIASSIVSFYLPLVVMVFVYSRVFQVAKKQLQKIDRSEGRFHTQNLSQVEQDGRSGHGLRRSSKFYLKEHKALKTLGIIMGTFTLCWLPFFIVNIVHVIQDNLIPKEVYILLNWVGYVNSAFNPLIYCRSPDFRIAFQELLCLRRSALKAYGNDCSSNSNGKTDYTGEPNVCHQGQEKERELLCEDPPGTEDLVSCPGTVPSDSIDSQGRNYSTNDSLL

COc1ccc(C2=NN(CCCCNCC(O)c3cc(Cl)c(N)c(Cl)c3)C(=O)[C@H]3CCCC[C@@H]23)cc1OC.O=C(O)/C=C/C(=O)O (relative stereo) [Compound 1, (cis)-2-(4-[{2-(4-amino-3,5-dichlorophenyl)-2-hydroxyethyl}-amino]-1-butyl)-4-(3,4-dimethoxyphenyl)-4a,5,6,7,8,8a-hexahydro-2H-phthalazin-1-one fumarate]
EC50 (β2-adrenoceptor): 12.9 nM
IC30 (human eosinophils): 3020 nM
melting point: 85 to 88 °C
Inhibition of PDE4 activity [-logIC50] (PDE4): 6.97

COc1ccc(C2=NN(C3CCN(C(=O)CCCNCC(O)c4cc(Cl)c(N)c(C#N)c4)CC3)C(=O)[C@@H]3CC=CC[C@H]23)cc1OC.O=C(O)/C=C/C(=O)O (stereo partly drawn) [Compound 20, 2-Amino-3-chloro-5-[2-(4-{4-[(4aS,8aR)-4-(3,4-dimethoxy-phenyl)-1-oxo-4a,5,8,8a-tetrahydro-1H-phthalazin-2-yl]-piperidin-1-yl}-4-oxo-butylamino)-1-hydroxy-ethyl]-benzonitrile fumarate]
EC50 (β2-adrenoceptor): 2.29 nM
IC30 (human eosinophils): 79.4 nM
Inhibition of PDE4 activity [-logIC50] (PDE4): 10.2

(cis)-2-(4-[{2-(4-amino-3-chloro-5-cyanophenyl)-2-hydroxyethyl}amino]-1-butyl)-4-(3,4-dimethoxyphenyl)-4a,5,8,8a-tetrahydro-2H-phthalazin-1-one hemifumarate [Compound 11]
β2-Adrenoceptor agonistic affinity [-logEC50 (mol/l)] (β2-adrenoceptor): 8.11 -log(mol/l)
Inhibition of C5a-stimulated chemiluminescence [-logIC30 (mol/l)] (human eosinophils): 6.22 mol/l

(cis)-2-(5-[{2-(4-amino-3-chloro-5-cyanophenyl)-2-hydroxyethyl}amino]-1-pentyl)-4-(3,4-dimethoxyphenyl)-4a,5,8,8a-tetrahydro-2H-phthalazin-1-one hemifumarate [Compound 12]
β2-Adrenoceptor agonistic affinity [-logEC50 (mol/l)] (β2-adrenoceptor): 8.61 -log(mol/l)
Inhibition of C5a-stimulated chemiluminescence [-logIC30 (mol/l)] (human eosinophils): 5.92 mol/l

(cis)-2-(6-[{2-(4-amino-3,5-dichlorophenyl)-2-hydroxyethyl}-amino]-1-hexyl)-4-(3,4-dimethoxyphenyl)-4a,5,6,7,8,8a-hexahydro-2H-phthalazin-1-one hemifumarate [Compound 2]
β2-Adrenoceptor agonistic affinity [-logEC50 (mol/l)] (β2-adrenoceptor): 6.86 -log(mol/l)
Inhibition of C5a-stimulated chemiluminescence [-logIC30 (mol/l)] (human eosinophils): <5 mol/l

(cis)-2-(6-[{2-(4-amino-3,5-dichlorophenyl)-2-hydroxyethyl}-amino]-1-hexyl)-4-(3,4-dimethoxyphenyl)-4a,5,8,8a-tetrahydro-2H-phthalazin-1-one hemifumarate [Compound 6]
β2-Adrenoceptor agonistic affinity [-logEC50 (mol/l)] (β2-adrenoceptor): 7.60 -log(mol/l)
Inhibition of C5a-stimulated chemiluminescence [-logIC30 (mol/l)] (human eosinophils): 6.00 mol/l

(cis)-2-(6-[{2-(4-amino-3-chloro-5-cyanophenyl)-2-hydroxyethyl}amino]-1-hexyl)-4-(3,4-dimethoxyphenyl)-4a,5,8,8a-tetrahydro-2H-phthalazin-1-one hemifumarate [Compound 13]
β2-Adrenoceptor agonistic affinity [-logEC50 (mol/l)] (β2-adrenoceptor): 6.91 -log(mol/l)
Inhibition of C5a-stimulated chemiluminescence [-logIC30 (mol/l)] (human eosinophils): 6.52 mol/l

(cis)-2-(8-[{2-(4-amino-3,5-dichlorophenyl)-2-hydroxyethyl}-amino]-1-octyl)-4-(3,4-dimethoxyphenyl)-4a,5,6,7,8,8a-hexahydro-2H-phthalazin-1-one hemifumarate [Compound 3]
β2-Adrenoceptor agonistic affinity [-logEC50 (mol/l)] (β2-adrenoceptor): 6.77 -log(mol/l)
Inhibition of C5a-stimulated chemiluminescence [-logIC30 (mol/l)] (human eosinophils): 6.52 mol/l

(cis)-4-(3,4-dimethoxyphenyl)-2-(6-[{2-(4-hydroxy-3-hydroxymethylphenyl)-2-hydroxyethyl}amino]-1-hexyl)-4a,5,6,7,8,8a-hexahydro-2H-phthalazin-1-one hemifumarate [Compound 14]
β2-Adrenoceptor agonistic affinity [-logEC50 (mol/l)] (β2-adrenoceptor): 7.24 -log(mol/l)
Inhibition of C5a-stimulated chemiluminescence [-logIC30 (mol/l)] (human eosinophils): 5.30 mol/l

Reference: US6933296B2, “Compounds effective as β2-adrenoreceptor agonists as well as PDE4-inhibitors” (Altana Pharma B.V., priority 2000, dated 2005)
